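A five-concentration, 48-hour dose response in 96-well plates underlies each endpoint, interpolated linearly between surrounding concentrations. Here, GI50 denotes the concentration required for 50% inhibition of growth.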 The source made the active and inactive calls. Rule as the data show it: active = GI50 up to about 1.1 µM and inactive = higher. Some results are limits rather than exact numbers.

Holding throughout (experiment): growth of human tumour cells (NCI), 48 h
Test [1] relates to SNB-75.
For test [2], the system named is SF-295.
The test system of test [3] is OVCAR-4.
Test [4] deals with T47D.
The subject of test [5] is UACC-62.
The test system of test [6] is UO-31.
The test system of test [7] is OVCAR-8.
The subject of test [8] is SNB-19.
The test system of test [9] is HCT-15.
The subject of test [10] is A549.
The test system of test [11] is HCT-116.
For test [12], the system named is SK-MEL-28.
The subject of test [13] is 786-0.
Test [14] relates to OVCAR-3.
Test [15] deals with COLO 205.
The test system of test [16] is A498.
Test [17] has as its system UACC-257.
The test system of test [18] is PC-3.
The test system of test [19] is M14.
In test [20] the test system is SK-MEL-2.

Take `Nc1ccccc1/N=N/c1c(S(=O)(=O)O)cc2cc(S(=O)(=O)O)cc(O)c2c1O`: the GI50 in [1], in test [2], in [3], in test [4], in [5] and in [6] was > 100 µM (inactive) throughout. Besides, the GI50 is > 100 µM (inactive) in [7]; > 100 µM (inactive) in test [8]; greater than 100 µM in test [9]; > 100 µM (inactive) in test [10]; 26.2 µM (inactive) in test [11]; > 100 µM (inactive) in [12]. For the same molecule, the GI50 in test [13] is 45.7 µM (inactive); in [14] it was > 100 µM (inactive); in [15], > 100 µM (inactive); in [16] it was > 100 µM (inactive); in [17], > 100 µM (inactive); in test [18], > 100 µM (inactive). Moreover, the GI50 in test [19] is > 100 µM (inactive).
`Cc1ccc(-c2cc(N)n(-c3nc4c([nH]3)c(=O)n(C)c(=O)n4C)n2)cc1`: the GI50 in test [2] was 2.69 µM (inactive); in test [3], 4.01 µM (inactive); in test [4] it was 4.76 µM (inactive); in test [5] it was 5.37 µM (inactive); in test [6], 2.78 µM (inactive); in test [7], 3.37 µM (inactive). For the same molecule, the GI50 in [8] was 8.55 µM (inactive); in [9] it was 0.47 µM; in test [10], 4.68 µM (inactive); in test [11], 2.69 µM (inactive); in test [12], 6.14 µM (inactive); in [13], 2.08 µM (inactive). In addition, the GI50 in test [14] is 4.55 µM (inactive); in test [15], 3.62 µM (inactive); in [16] it was 4.86 µM (inactive); in test [17], 15.3 µM (inactive); in test [18], 16.3 µM (inactive); in test [20] it was 6.64 µM (inactive). Moreover, the GI50 in [19] is 4.32 µM (inactive).
With `Nc1nc(Cl)nc2c1ncn2C1CCC(COP(=O)(O)OP(=O)(O)OP(=O)(O)O)O1` (stereo not given), the GI50 in test [1] is 34.4 µM (inactive); in test [2] it was 17.9 µM (inactive); in test [3], 24.9 µM (inactive); in test [4] it was 23.8 µM (inactive); in test [5] it was 18.1 µM (inactive); in test [6], 12.7 µM (inactive). Besides, the GI50 in [7] is 21.4 µM (inactive); in test [8], > 100 µM (inactive); in test [9], 34.8 µM; in [10] it was 32.7 µM (inactive); in test [11] it was 35.2 µM (inactive); in [12], 20.4 µM (inactive). The GI50 in test [13] is 37.3 µM (inactive); in test [14], 50.2 µM (inactive); in test [15], 20.5 µM (inactive); in [16] it was 26.1 µM (inactive); in test [17], 41.6 µM (inactive); in [18] it was 23.1 µM (inactive). In addition, the GI50 in test [19] is 16.8 µM (inactive).
As for `O=[N+]([O-])C(=C1NCCN1)C(Cl)=C(Cl)Cl`, the GI50 in test [2], in test [3], in [4], in [5], in test [6] and in test [7] was > 100 µM (inactive) throughout. The GI50 was > 100 µM (inactive) in [8]; greater than 100 µM in [9]; > 100 µM (inactive) in test [10]; > 100 µM (inactive) in test [11]; > 100 µM (inactive) in [12]; > 100 µM (inactive) in [13]. Also, the GI50 in [14], in test [15], in test [16], in test [17], in test [18] and in test [20] was > 100 µM (inactive) in each case. In addition, the GI50 in test [19] was > 100 µM (inactive).
For `CC1CC2OC(=N)C1(C#N)C2(C#N)C#N` (stereo not given), the GI50 in test [1] was 11.5 µM (inactive); in [2], 79.1 µM (inactive); in test [4], 25.9 µM (inactive); in [5], 23.4 µM (inactive); in test [6], 24.5 µM (inactive); in [7], 25.1 µM (inactive). Besides, the GI50 was 34.8 µM (inactive) in test [8]; 14 µM in [9]; > 100 µM (inactive) in test [10]; 16.3 µM (inactive) in test [11]; 35.3 µM (inactive) in test [12]; 17.9 µM (inactive) in [13]. Also, the GI50 in test [15] is 10.9 µM (inactive); in [16], 20.3 µM (inactive); in [17], 18.8 µM (inactive); in test [18], 25.7 µM (inactive); in test [20], 20.3 µM (inactive); in test [19], 29.6 µM (inactive).
On to `Nc1ccccc1N/C=C\C(=O)C(Cl)(Cl)Cl`, for which the GI50 in [1] was 22.6 µM (inactive); in [2] it was 23.4 µM (inactive); in [3], 19.5 µM (inactive); in test [4], 18.6 µM (inactive); in test [5], 17.5 µM (inactive); in test [6] it was 19.2 µM (inactive). Moreover, the GI50 in test [7] is 29 µM (inactive); in test [8], 34.1 µM (inactive); in test [9] it was 19 µM; in [10], 67.3 µM (inactive); in test [11] it was 16.2 µM (inactive); in [12] it was 17.5 µM (inactive). The GI50 in test [13] is 15 µM (inactive); in [15] it was 22.8 µM (inactive); in test [16], 18.8 µM (inactive); in [17] it was 21.9 µM (inactive); in [18], 35.3 µM (inactive); in test [20], 24.5 µM (inactive). For the same molecule, the GI50 in test [19] is 14.7 µM (inactive).
As for `O=C1C=CC(=O)c2c1ccc1c3ccccc3n(CCCCCCCCn3c4ccccc4c4ccc5c(c43)C(=O)C=CC5=O)c21`, the GI50 in test [2], in test [3], in test [4], in test [5], in test [7] and in test [8] was > 100 µM (inactive) each time. The GI50 in test [9] was greater than 100 µM; in test [10], > 100 µM (inactive); in test [11] it was > 100 µM (inactive); in test [12] it was > 100 µM (inactive); in [13], > 100 µM (inactive); in test [14], > 100 µM (inactive). The GI50 in test [15], in test [16], in test [17], in test [18], in [20] and in [19] was > 100 µM (inactive) in each case.
Take `Cc1cc(C)cc(Nc2cc(O)nc(O)n2)c1`: the GI50 in test [1] is 15.8 µM (inactive); in test [2] it was > 100 µM (inactive); in test [3] it was > 100 µM (inactive); in test [4], 0.0649 µM (active); in test [6], > 100 µM (inactive); in [7], > 100 µM (inactive). In addition, the GI50 in test [8] is > 100 µM (inactive); in test [9], greater than 100 µM; in [10] it was > 100 µM (inactive); in test [11], > 100 µM (inactive); in [12], > 100 µM (inactive); in test [13] it was > 100 µM (inactive). Also, the GI50 in test [14], in test [15], in [16], in [17], in test [18] and in [19] was > 100 µM (inactive) each time.
For the molecule `CC1=N[C@@](C)(C2CC3C=CC2C3=O)COC1=O` (stereo not given in full), the GI50 in [1], in [2], in test [3], in test [4], in [5] and in test [6] was > 100 µM (inactive) in each case. The GI50 in [7], in test [8], in [10], in test [11], in test [12] and in test [13] was > 100 µM (inactive) throughout. Moreover, the GI50 in test [14], in test [15], in test [16], in test [17], in test [18] and in [19] was > 100 µM (inactive) in each case.
In the case of `CC1=NNC(=O)C1C1CC(c2c[nH]c3ccccc23)=NN(c2ccccc2)C1=O` (stereo not given), the GI50 in test [1], in test [2], in test [4], in test [5], in test [6] and in test [7] was > 100 µM (inactive) throughout. The GI50 in [8] is > 100 µM (inactive); in test [9], 37 µM; in [10], > 100 µM (inactive); in [11] it was 34.7 µM (inactive); in test [12], > 100 µM (inactive); in [13], 24.6 µM (inactive). Further, the GI50 in test [14], in test [15], in [16], in test [17], in test [18] and in test [20] was > 100 µM (inactive) each time. In addition, the GI50 in test [19] was 66.4 µM (inactive).
With `CC(=O)OCC1OC(NC(=S)Nn2c(-c3ccccc3)nc3ccccc3c2=O)C(OC(C)=O)C(OC(C)=O)C1OC(C)=O` (stereo not given), the GI50 in test [1] was 96.8 µM (inactive); in [2] it was > 100 µM (inactive); in test [4], 19.4 µM (inactive); in test [5], 51.5 µM (inactive); in [6] it was > 100 µM (inactive); in [7] it was > 100 µM (inactive). For the same molecule, the GI50 in [8] is > 100 µM (inactive); in test [9], greater than 100 µM; in test [10], > 100 µM (inactive); in [11] it was > 100 µM (inactive); in test [12], 90.2 µM (inactive); in test [13], > 100 µM (inactive). Moreover, the GI50 in test [14] is 30.8 µM (inactive); in test [15], > 100 µM (inactive); in test [16] it was > 100 µM (inactive); in test [17] it was > 100 µM (inactive); in test [18], > 100 µM (inactive); in test [20], 25.9 µM (inactive). In [19], the GI50 is 62.7 µM (inactive).

The values are drawn from ChEMBL document CHEMBL1201862, “PubChem BioAssay data set” (2004).
